The NIST ThermoML archive (doi:10.1021/acs.jced.8b00684)
Numbers after ± are expanded uncertainties.

Experiment: xn = mol fraction of the nth substance listed
Details: 100 kPa, Liquid, Falling or rolling sphere viscometry

CCCCCCn1cc[n+](C)c1.F[B-](F)(F)F [1-hexyl-3-methylimidazolium tetrafluoroborate] + CC#N
viscosity [mPa·s]
Details | x1 = 0.104 | x1 = 0.2049 | x1 = 0.2948 | x1 = 0.4066 | x1 = 0.4616 | x1 = 0.5697 | x1 = 0.6626 | x1 = 0.8083 | x1 = 0.9044 | x1 = 1
293.15 K | 1.15 ± 0.05 | 2.43 ± 0.1 | 4.79 ± 0.2 | 10.5 ± 0.4 | 14.9 ± 0.6 | 29.1 ± 1.2 | 50 ± 2 | 112 ± 5 | 184 ± 10 | 293 ± 20
298.15 K | 1.05 ± 0.04 | 2.26 ± 0.09 | 4.32 ± 0.18 | 9.04 ± 0.37 | 12.7 ± 0.5 | 24 ± 1 | 40.3 ± 1.6 | 86.4 ± 3.8 | 139 ± 7 | 216 ± 13
303.15 K | 0.99 ± 0.04 | 2.08 ± 0.09 | 3.89 ± 0.16 | 7.92 ± 0.32 | 11 ± 0.5 | 20.1 ± 0.8 | 32.8 ± 1.3 | 67.7 ± 2.8 | 106 ± 5 | 163 ± 9
313.15 K | 0.87 ± 0.04 | 1.79 ± 0.07 | 3.21 ± 0.13 | 6.19 ± 0.25 | 8.36 ± 0.34 | 14.6 ± 0.6 | 22.8 ± 0.9 | 43.9 ± 1.8 | 65.9 ± 2.7 | 96.7 ± 4.3
323.15 K | 0.78 ± 0.03 | 1.56 ± 0.06 | 2.69 ± 0.11 | 4.98 ± 0.2 | 6.58 ± 0.27 | 11 ± 0.5 | 16.6 ± 0.7 | 30.1 ± 1.2 | 43.5 ± 1.8 | 61.8 ± 2.5
333.15 K | 0.71 ± 0.03 | 1.37 ± 0.06 | 2.3 ± 0.09 | 4.1 ± 0.17 | 5.32 ± 0.22 | 8.58 ± 0.35 | 12.5 ± 0.5 | 21.7 ± 0.9 | 30.4 ± 1.2 | 41.9 ± 1.7
343.15 K | 0.65 ± 0.03 | 1.22 ± 0.05 | 1.99 ± 0.08 | 3.43 ± 0.14 | 4.38 ± 0.18 | 6.85 ± 0.28 | 9.75 ± 0.4 | 16.2 ± 0.7 | 22.1 ± 0.9 | 29.5 ± 1.2

CCCCCCn1cc[n+](C)c1.F[B-](F)(F)F [1-hexyl-3-methylimidazolium tetrafluoroborate] + C[S+](C)[O-]
viscosity [mPa·s]
Details | 293.15 K | 298.15 K | 303.15 K | 313.15 K | 323.15 K | 333.15 K | 343.15 K | 353.15 K
x1 = 0.116 | 4.93 ± 0.2 | 4.18 ± 0.17 | 3.7 ± 0.15 | 2.96 ± 0.12 | 2.43 ± 0.1 | 1.94 ± 0.08 | 1.68 ± 0.07 | 1.37 ± 0.06
x1 = 0.2495 | 11 ± 0.5 | 9.67 ± 0.39 | 8.37 ± 0.34 | 6.47 ± 0.26 | 5.11 ± 0.21 | 4.02 ± 0.16 | 3.14 ± 0.13 | 2.77 ± 0.11
x1 = 0.2831 | 13.7 ± 0.6 | 11.8 ± 0.5 | 10.1 ± 0.4 | 7.71 ± 0.31 | 6.01 ± 0.24 | 4.74 ± 0.19 | 3.68 ± 0.15 | 3.21 ± 0.13
x1 = 0.3857 | 25 ± 1 | 20.6 ± 0.8 | 17.1 ± 0.7 | 12.4 ± 0.5 | 9.35 ± 0.38 | 7.28 ± 0.3 | 5.75 ± 0.23 | 4.72 ± 0.19
x1 = 0.5036 | 44.2 ± 1.8 | 34.9 ± 1.4 | 28.4 ± 1.2 | 19.6 ± 0.8 | 14.3 ± 0.6 | 10.8 ± 0.4 | 8.72 ± 0.35 | 6.7 ± 0.27
x1 = 0.5714 | 58.4 ± 2.4 | 45.6 ± 1.9 | 36.6 ± 1.5 | 24.8 ± 1 | 17.7 ± 0.7 | 13.2 ± 0.5 | 10.6 ± 0.4 | 7.99 ± 0.33
x1 = 0.6702 | 84.8 ± 3.7 | 65.6 ± 2.7 | 51.8 ± 2.1 | 34.1 ± 1.4 | 23.7 ± 1 | 17.2 ± 0.7 | 13.5 ± 0.6 | 10.2 ± 0.4
x1 = 0.7517 | 114 ± 5 | 87.6 ± 3.8 | 68.4 ± 2.8 | 44 ± 1.8 | 30 ± 1.2 | 21.4 ± 0.9 | 16.2 ± 0.7 | 12.3 ± 0.5
x1 = 0.7883 | 130 ± 6 | 99.7 ± 4.5 | 77.5 ± 3.3 | 49.2 ± 2 | 33.3 ± 1.4 | 23.6 ± 1 | 17.6 ± 0.7 | 13.4 ± 0.5
x1 = 0.8976 | 196 ± 11 | 148 ± 8 | 113 ± 5 | 69.4 ± 2.9 | 45.6 ± 1.9 | 31.6 ± 1.3 | 22.5 ± 0.9 | 17.2 ± 0.7
x1 = 1 | 293 ± 20 | 216 ± 13 | 163 ± 9 | 96.7 ± 4.3 | 61.8 ± 2.5 | 41.9 ± 1.7 | 29.5 ± 1.2 | 21.7 ± 0.9
